From PubChem BioAssay (NCI)
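Interpolation was linear, between the two tested concentrations surrounding the appropriate level; five concentrations were tested over 48 hours in 96-well plates. GI50 marks 50% less growth. The concentration for full growth arrest is given as TGI.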

Columns and labels:
Assay in all cases: NCI anticancer screen, dose series, 48 h
MDA-MB-231 breast = system: MDA-MB-231 breast
M14 melanoma = system: M14 melanoma
ACHN renal = system: ACHN renal
T-47D breast = system: T-47D breast
HCT-116 colon = system: HCT-116 colon
PC-3 prostate = system: PC-3 prostate
OVCAR-3 ovarian = system: OVCAR-3 ovarian
HT29 colon = system: HT29 colon
MALME-3M melanoma = system: MALME-3M melanoma
MCF7 breast = system: MCF7 breast

Row | Structure (SMILES) | GI50 (MDA-MB-231 breast) [µM] | TGI (MDA-MB-231 breast) [µM] | GI50 (M14 melanoma) [µM] | TGI (M14 melanoma) [µM] | GI50 (ACHN renal) [µM] | TGI (ACHN renal) [µM] | GI50 (T-47D breast) [µM] | TGI (T-47D breast) [µM] | GI50 (HCT-116 colon) [µM] | TGI (HCT-116 colon) [µM] | GI50 (PC-3 prostate) [µM] | TGI (PC-3 prostate) [µM] | GI50 (OVCAR-3 ovarian) [µM] | TGI (OVCAR-3 ovarian) [µM] | GI50 (HT29 colon) [µM] | TGI (HT29 colon) [µM] | GI50 (MALME-3M melanoma) [µM] | TGI (MALME-3M melanoma) [µM] | GI50 (MCF7 breast) [µM] | TGI (MCF7 breast) [µM]
1 | Nc1cc(C(F)F)c(-c2nc(N3[C@@H]4CC[C@H]3COC4)nc(N3[C@@H]4CC[C@H]3COC4)n2)cn1 | 0.406 | > 93.3 | 0.295 | 23.9 | 0.302 | > 100 | 0.0533 | 0.41 | 0.769 | > 100 | 0.239 | > 100 | 0.435 | > 100 | 0.628 | > 100 | 0.0713 | 0.877 | 0.189 | > 100
2 | Cc1cc(NC(=O)CCc2ccc(N3C(N)=NC(N)=NC3(C)C)cc2)ccc1S(=O)(=O)F | > 87.2 | > 100 | 0.737 | > 100 | 26.2 | > 100 | 10.6 | > 100 | 0.62 | > 100 | 0.368 | > 100 | 12.2 | > 100 | < 0.0374 | > 100 | > 89.4 | > 100 | 0.115 | > 25.1
3 | CC(=O)N1c2ccccc2C23CCN4CC5=CCOC(O)C(C5CC42)C13 (configuration not stated) |  | > 100 |  | > 100 |  | > 100 |  | > 100 |  | > 100 |  | > 100 |  | > 100 |  | > 100 |  | > 100 |  | > 100
4 | COc1ccc(OC)c(-c2nc3sccn3c2/C=C2/C(=O)Nc3ccccc32)c1 | 2.11 | 25.3 | 0.323 | 1.41 | 0.61 | 15.9 | 7.82 | > 49.4 | 0.142 | 1.52 | 0.359 | 14.2 | 0.235 | 0.586 | 0.355 |  | 0.979 | 21.2 | 0.476 | > 35.7
5 | COC(=O)c1c2c(c(C)[n+]([O-])c1C)C(=O)C(NCc1ccc(F)c(Cl)c1)=CC2=O | 1.76 | 5.6 | 1.41 | 3.12 | 2.1 | 7.9 | 1.84 | 5.09 | 2.34 | 10.2 | 2.27 | 12.9 | 0.306 | 1.24 | 1.35 | > 100 | 0.214 | 0.658 | 1.32 | 3.23
6 | C#C[C@]1(O)CC[C@H]2[C@@H]3CC=C4c5nc(Nc6ccc(OC)cc6OC)sc5CC[C@]4(C)[C@H]3CC[C@@]21C | 1.26 | 5.34 | 1.37 | 3.53 | 2.06 | 10.2 | 2.67 | 15.7 | 1.21 | 2.7 | 0.845 | 9.02 | 1.58 | 3.74 | 1.29 | 6.4 | 0.655 | 2.85 | 0.978 | 2.65
7 | COCCOC(C)C(/C=N/NC(N)=S)=N/NC(N)=S (configuration not stated) |  |  | 0.0643 | > 100 | > 100 | > 100 |  | > 100 | 0.0189 | > 100 | 0.0574 | > 100 | 0.0252 |  |  |  |  |  |  | 
8 | COc1cc(/C=C2\C(=O)N(c3c(Cl)cccc3Cl)c3ccccc32)cc(OC)c1O | 2.56 | 31.5 | 1.03 | 15.6 | 0.59 | 14.2 | 2.89 | 17.8 | 0.292 | 4.83 | 1.44 | 27.1 | 0.905 | 7.24 | 2.17 | 8.62 | 0.537 | 16 | 0.524 | 9.26
9 | O=C(Oc1ccc([N+](=O)[O-])cc1)N1CCC(C(O)(c2ccc3c(c2)OCO3)c2ccc3c(c2)OCO3)CC1 | > 100 | > 100 | > 100 | > 100 | > 100 | > 100 | > 100 | > 100 | > 100 | > 100 | > 100 | > 100 | > 100 | > 100 | > 100 | > 100 | > 100 | > 100 | > 100 | > 100
10 | N#Cc1ccc(-n2cnc(NC(=O)[C@H]3CCN(C#N)C3)c2)cc1 | 1.91 | > 91.6 | 0.757 | 6.28 | 2.55 | > 100 | 0.706 | 6.86 | 1.1 | 9.27 | 2.39 | 20.2 |  | 4.84 | 1.29 | 7.3 | 0.312 | 6.58 | < 0.0378 | > 100
11 | COc1ccc2[nH]cc(/C=C3\C(=O)Nc4ccccc43)c2c1 | 3.95 | 21.9 | 2.99 | 14.2 | 5.85 | 37.5 | 4.91 | 30.3 | 3.41 | 14.5 | 5.89 | 25.8 | 9.62 | 35.9 | 3.6 | 14.3 | 11.2 | 49.1 | 2.45 | 10.5
12 | CCOC(=O)C(=Cc1ccc(Br)cc1)C(=O)OCC | 2.08 | 5.37 | 1.8 | 3.68 | 2.09 | 4.45 | 2.12 | 6 | 1.4 | 2.92 | 1.86 | 5.96 | 1.47 | 2.92 | 2.25 | 5.86 | 2.32 | 5.59 | 1.66 | 6.67
13 | O=S(=O)(Nc1ccc(Cl)c(C(F)(F)F)c1)c1ccc(-c2cnc(C3CC3)o2)cc1 | 1.23 | 3.64 | 0.276 | 4.68 | 0.789 | 6.88 | 0.289 | 8.92 | 0.187 | 4.14 | 0.713 | 6.59 | 0.0393 | 1.9 | 0.157 |  | 0.624 | 4.41 | 0.132 | 5.23
